Test results: ChEMBL document CHEMBL1157522 (Bioorg Med Chem Lett, 2008)
Calls of active or inactive are those of the source. The rule behind the calls is not given here.

Assays:
[1] = target: Tissue-type plasminogen activator (Homo sapiens) (UniProt P00750); test: Inhibition of human tPA
[2] = Metabolic stability in human liver microsomes assessed as half life; format: ADME, Microsome
[3] = Bioavailability in dog at 0.5 mg/kg, iv; format: ADME, organism-based, Canis lupus familiaris; conditions: in vivo
[4] = target: Plasma kallikrein (Homo sapiens) (UniProt P03952); test: Inhibition of human plasma kallikrein; format: cell-free
Sequence of Plasma kallikrein (Homo sapiens) (P03952 20-390 limits assumed): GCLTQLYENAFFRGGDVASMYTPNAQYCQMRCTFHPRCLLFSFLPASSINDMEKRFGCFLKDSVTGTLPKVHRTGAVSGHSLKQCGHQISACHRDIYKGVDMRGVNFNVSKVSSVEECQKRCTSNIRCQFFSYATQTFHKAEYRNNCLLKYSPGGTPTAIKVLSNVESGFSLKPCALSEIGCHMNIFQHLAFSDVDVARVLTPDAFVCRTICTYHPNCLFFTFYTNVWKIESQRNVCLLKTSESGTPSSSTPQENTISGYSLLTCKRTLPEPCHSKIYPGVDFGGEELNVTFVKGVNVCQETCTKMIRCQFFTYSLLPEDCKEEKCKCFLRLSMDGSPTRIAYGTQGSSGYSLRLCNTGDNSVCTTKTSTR
Sequence of Plasma kallikrein (Homo sapiens) (P03952 391-638 limits assumed): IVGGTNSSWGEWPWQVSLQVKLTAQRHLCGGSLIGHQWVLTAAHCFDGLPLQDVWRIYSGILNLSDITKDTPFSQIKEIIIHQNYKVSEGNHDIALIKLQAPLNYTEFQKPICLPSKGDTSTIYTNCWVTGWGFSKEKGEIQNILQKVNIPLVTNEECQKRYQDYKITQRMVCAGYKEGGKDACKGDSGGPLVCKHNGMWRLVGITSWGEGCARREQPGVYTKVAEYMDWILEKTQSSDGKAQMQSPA

[5] = target: Vitamin K-dependent protein C (Homo sapiens) (UniProt P04070); test: Inhibition of human activated protein C
Sequence of Vitamin K-dependent protein C (Homo sapiens) (P04070 43-197 limits assumed): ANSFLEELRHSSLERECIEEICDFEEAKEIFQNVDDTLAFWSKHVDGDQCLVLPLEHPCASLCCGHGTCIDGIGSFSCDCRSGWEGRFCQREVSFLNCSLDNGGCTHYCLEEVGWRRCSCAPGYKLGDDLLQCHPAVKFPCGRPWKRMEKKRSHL
Sequence of Vitamin K-dependent protein C (Homo sapiens) (P04070 212-461 limits assumed): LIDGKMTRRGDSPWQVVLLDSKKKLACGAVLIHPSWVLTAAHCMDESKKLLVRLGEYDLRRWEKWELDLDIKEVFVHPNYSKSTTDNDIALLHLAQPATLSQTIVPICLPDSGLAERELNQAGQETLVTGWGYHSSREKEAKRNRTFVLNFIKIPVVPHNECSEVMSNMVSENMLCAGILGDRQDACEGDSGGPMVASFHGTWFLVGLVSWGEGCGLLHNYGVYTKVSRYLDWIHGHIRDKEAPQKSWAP

[6] = Half life in dog at 0.2 mg/kg, po; format: ADME, organism-based, Canis lupus familiaris; set-up: dose 0.2 mg/kg, route oral; conditions: in vivo
[7] = target: Coagulation factor IX (Homo sapiens) (UniProt P00740); test: Inhibition of human factor 9a
Sequence of Coagulation factor IX (Homo sapiens) (P00740 47-191 limits assumed): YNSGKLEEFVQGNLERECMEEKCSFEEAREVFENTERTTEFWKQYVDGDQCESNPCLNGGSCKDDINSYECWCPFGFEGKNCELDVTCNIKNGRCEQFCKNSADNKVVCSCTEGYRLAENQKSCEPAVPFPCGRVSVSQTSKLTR
Sequence of Coagulation factor IX (Homo sapiens) (P00740 227-461 limits assumed): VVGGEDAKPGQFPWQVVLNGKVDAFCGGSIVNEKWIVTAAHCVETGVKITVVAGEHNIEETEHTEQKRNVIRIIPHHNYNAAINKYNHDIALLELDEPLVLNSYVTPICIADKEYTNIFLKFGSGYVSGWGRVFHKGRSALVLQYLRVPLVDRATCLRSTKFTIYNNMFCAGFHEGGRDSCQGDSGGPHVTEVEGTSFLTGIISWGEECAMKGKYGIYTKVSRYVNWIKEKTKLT

[8] = Clearance in dog at 0.5 mg/kg, iv; format: ADME, organism-based, Canis lupus familiaris; set-up: dose 0.5 mg/kg, route intravenous; conditions: in vivo
[9] = target: T1, Coagulation factor VII (Homo sapiens) (UniProt P08709); test: Inhibition of human factor 7a
T1 sequence (whole entry): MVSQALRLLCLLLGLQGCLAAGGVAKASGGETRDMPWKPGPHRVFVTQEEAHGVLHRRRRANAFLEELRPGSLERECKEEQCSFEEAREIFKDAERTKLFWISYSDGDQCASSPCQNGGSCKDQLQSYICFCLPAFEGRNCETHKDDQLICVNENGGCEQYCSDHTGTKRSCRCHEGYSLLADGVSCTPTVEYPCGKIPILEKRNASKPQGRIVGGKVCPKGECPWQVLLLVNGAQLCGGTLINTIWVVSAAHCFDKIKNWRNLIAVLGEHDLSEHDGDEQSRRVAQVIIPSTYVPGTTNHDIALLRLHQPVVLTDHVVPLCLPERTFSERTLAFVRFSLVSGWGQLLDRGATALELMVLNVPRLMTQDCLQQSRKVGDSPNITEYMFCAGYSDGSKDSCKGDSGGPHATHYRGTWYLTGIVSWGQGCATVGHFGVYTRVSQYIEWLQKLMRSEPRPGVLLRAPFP

[10] = (§1) Volume of distribution at steady state in dog; format: ADME, organism-based, Canis lupus familiaris; conditions: in vivo, read-out: Vdss
[11] = target: Plasminogen (Homo sapiens) (UniProt P00747); test: Inhibition of human plasmin
Sequence of Plasminogen (Homo sapiens) (P00747 97-580 limits assumed): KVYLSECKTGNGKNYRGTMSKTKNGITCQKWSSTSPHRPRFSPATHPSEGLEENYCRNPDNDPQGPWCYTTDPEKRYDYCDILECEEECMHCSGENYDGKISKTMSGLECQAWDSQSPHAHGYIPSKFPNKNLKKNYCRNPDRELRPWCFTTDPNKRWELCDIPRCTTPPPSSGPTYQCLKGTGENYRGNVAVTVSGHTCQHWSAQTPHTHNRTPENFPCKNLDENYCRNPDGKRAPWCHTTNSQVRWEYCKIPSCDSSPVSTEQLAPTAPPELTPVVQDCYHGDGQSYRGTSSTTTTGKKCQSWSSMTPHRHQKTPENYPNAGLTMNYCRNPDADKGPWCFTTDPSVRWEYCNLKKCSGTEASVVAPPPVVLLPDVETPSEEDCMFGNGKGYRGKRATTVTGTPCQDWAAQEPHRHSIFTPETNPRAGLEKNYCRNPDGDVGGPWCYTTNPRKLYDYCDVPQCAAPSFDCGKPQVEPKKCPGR
Sequence of Plasminogen (Homo sapiens) (P00747 581-810 limits assumed): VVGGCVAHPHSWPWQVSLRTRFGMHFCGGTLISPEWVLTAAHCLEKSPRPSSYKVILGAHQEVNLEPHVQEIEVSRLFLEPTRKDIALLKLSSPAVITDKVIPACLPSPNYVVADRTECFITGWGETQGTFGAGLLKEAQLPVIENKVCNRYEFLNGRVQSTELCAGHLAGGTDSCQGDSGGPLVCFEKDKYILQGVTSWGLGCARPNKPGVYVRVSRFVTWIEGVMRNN

[12] = species: Homo sapiens; test: Inhibition of human chymotrypsin
[13] = species: Canis familiaris; test: as §1; format: ADME, organism-based, Canis lupus familiaris; conditions: in vivo
[14] = target: Coagulation factor X (Homo sapiens, UniProt P00742); test: Inhibition of human factor 10a
Sequence of Coagulation factor X (P00742 41-179 limits assumed): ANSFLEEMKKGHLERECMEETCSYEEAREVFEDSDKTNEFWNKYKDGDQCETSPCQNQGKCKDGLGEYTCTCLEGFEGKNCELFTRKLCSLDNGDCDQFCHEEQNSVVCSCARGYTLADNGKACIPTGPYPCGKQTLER
Sequence of Coagulation factor X (P00742 235-488 limits assumed): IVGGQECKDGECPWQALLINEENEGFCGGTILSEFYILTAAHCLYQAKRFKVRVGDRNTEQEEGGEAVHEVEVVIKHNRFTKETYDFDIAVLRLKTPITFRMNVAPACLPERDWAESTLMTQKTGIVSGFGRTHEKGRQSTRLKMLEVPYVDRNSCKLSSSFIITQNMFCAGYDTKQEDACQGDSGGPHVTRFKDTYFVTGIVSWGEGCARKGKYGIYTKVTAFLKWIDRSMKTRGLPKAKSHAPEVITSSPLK

[15] = target: Trypsin (Homo sapiens) (UniProt P07477+P07478+P35030); test: Inhibition of human trypsin; format: protein assay

Sequence of Tissue-type plasminogen activator (Homo sapiens) (P00750 36-562 limits assumed): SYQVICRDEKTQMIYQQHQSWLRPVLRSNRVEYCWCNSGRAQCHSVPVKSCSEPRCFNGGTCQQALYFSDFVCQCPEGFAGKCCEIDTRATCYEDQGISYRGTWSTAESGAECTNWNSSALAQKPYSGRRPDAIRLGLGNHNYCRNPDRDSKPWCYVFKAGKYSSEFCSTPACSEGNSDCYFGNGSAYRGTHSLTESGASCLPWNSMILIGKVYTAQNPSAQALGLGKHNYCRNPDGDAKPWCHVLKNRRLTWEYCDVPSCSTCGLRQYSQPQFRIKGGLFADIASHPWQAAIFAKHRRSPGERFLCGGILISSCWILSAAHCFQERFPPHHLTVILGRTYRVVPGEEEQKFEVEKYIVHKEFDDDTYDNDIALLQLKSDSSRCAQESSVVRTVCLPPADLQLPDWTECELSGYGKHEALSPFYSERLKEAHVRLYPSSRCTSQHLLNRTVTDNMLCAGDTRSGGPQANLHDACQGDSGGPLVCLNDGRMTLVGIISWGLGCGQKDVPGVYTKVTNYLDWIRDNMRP

SMILES | Activity [1] | half-life [2] | bioavailability [3] | Activity [4] | Activity [5] | half-life [6] | Activity [7] | clearance [8] | Activity [9] | Vd [10] | Activity [11] | Activity [12] | Vdss [13] | Ki [14] | Activity [15]
COc1ccc(-n2nc(C(F)(F)F)c3c2C(=O)N(c2ccc(C4(CN(C)C)CC4)cc2)CC3)cc1 | inactive | 1.83 h | 53% | inactive | inactive | 12 h | inactive | 20 mL/min/kg | inactive | 15 L/kg | inactive | inactive |  |  | 
CN(C)Cc1nccn1-c1ccc(NC(=O)c2cc(C(F)(F)F)nn2-c2ccc3onc(N)c3c2)c(F)c1 [RAZAXABAN] |  | 0.6 h | 84% |  |  |  |  |  |  |  |  |  | 5.3 L/kg |  | 
COc1ccc(-n2nc(C(F)(F)F)c3c2C(=O)N(c2ccc(C4(C(N)=O)CC4)cc2)CC3)cc1 | inactive |  |  | inactive | inactive |  | inactive |  | inactive |  | inactive | inactive |  | 3.3 nM | inactive
COc1ccc(-n2nc(C(F)(F)F)c3c2C(=O)N(c2ccc(C4(C#N)CC4)cc2)CC3)cc1 | inactive |  |  | inactive | inactive |  | inactive |  | inactive |  | inactive | inactive |  | 1.8 nM | inactive
